Reference: article PMC13308190, “Endothelial progenitor cell susceptibility to DNA damaging and DDR-modulating compounds determines endothelial differentiation accuracy” (Stem Cell Research & Therapy, 2026)

Legend:
Format in all cases: cell-based, mouse
[1] = tested on: mESC; assay: Nuclear γH2AX / 53BP1 foci (DSB); details: mESC 24 h, equitoxic concentrations
Experimental: (§1) DNA double-strand breaks were monitored by immunocytochemical detection of nuclear γH2AX and 53BP1 foci. Cells were fixed with 3.7% formaldehyde/PBS (15 min, RT) and permeabilized (0.3% TritonX/PBS; 15 min, RT). […] Cell suspension was mixed with 0.5% low melting point agarose and applied onto glass slides coated with 1.5% agarose. After lysis in alkaline buffer (pH 10, 1 h, 4 °C, protected from light) and DNA denaturation in precooled electrophoresis buffer (pH > 13, 25 min, 4 °C, protected from light) electrophoresis was performed (300 mA, 25 V, 4 °C, 25 min).

[2] = tested on: EC d4; assay: Nuclear γH2AX / 53BP1 foci (DSB); details: EC d4 48 h, equitoxic concentrations
Experimental: as §1

[3] = tested on: mESC; assay: RT-qPCR mRNA expression; details: for Cdkn1a mRNA / Cdkn2a mRNA / Glb1 mRNA / Il6 mRNA / Il8 mRNA / Tp53 mRNA: Fig 7A; for Brca1 mRNA / Chk1 mRNA / Rad51 mRNA: Fig 5C; for Atp7a mRNA / Atp7b mRNA / Ctr2 mRNA / Mdr1 mRNA / Mrp1 mRNA / Oct2 mRNA: Fig 2D
Experimental: Total RNA was purified using the RNeasy Mini Kit (Qiagen, Hilden, Germany). Reverse transcriptase (RT) reaction was performed with the HighCapacity cDNA Reverse Transcription Kit (Applied Biosystems, Darmstadt, Germany) using 900–2000 ng of RNA. Quantitative RT-qPCR analysis was performed using following conditions: (1) 95 °C–10 min; (2) 45 amplification cycles with 95 °C–15 s, 55 °C–15 s, and 72 °C–17 s; (3) 95 °C–1 min, 55 °C–1 min, 65 °C–5 s. If not stated otherwise, analyses were performed in technical triplicates using pooled samples from two independent experiments (each performed with biological duplicates) by use of a CFX96 cycler (BioRad) and the SensiMix SYBR Kit (Bioline, London, UK). The primers used for mRNA expression analyses are listed in Supplementary Table 1. To ensure the specificity of the amplification product, melting curves were recorded at the end of the run. mRNA expression levels were normalized to β-Actin and Gapdh. Relative mRNA expression in mESC or corresponding untreated controls was set to 1.0. Only changes in gene expression of ≤ 0.5- and ≥ 2-fold were considered as biologically relevant. Fold-changes in gene expression are summarized in Supplementary Table 2.

[4] = tested on: EC d4; assay: ZO1 tight junction immunofluorescence; details: EC d4 treated 48 h
[5] = mESC + 10 µM 24 h + 24 h post incubation
[6] = mESC + 20 µM 24 h + 24 h post incubation
[7] = mESC + 0.05 µM 24 h + 24 h post incubation
[8] = mESC + 0.1 µM 24 h + 24 h post incubation

Question: Which results are given for Nc1ccccc1NC(=O)c1ccc(CNC(=O)OCc2cccnc2)cc1 [EST, entinostat]?
Answer: nuclear γH2AX foci [1]: significant increase; DSB numbers (γH2AX / 53BP1 foci) [2]: clear increase; Cdkn1a mRNA [3, 5]: 2.08 Fold of untreated control; Cdkn2a mRNA [3, 5]: 5.82 Fold of untreated control; Glb1 mRNA [3, 5]: 0.47 Fold of untreated control; Il6 mRNA [3, 5]: 6.25 Fold of untreated control; Il8 mRNA [3, 5]: 0.83 Fold of untreated control; Tp53 mRNA [3, 5]: 0.83 Fold of untreated control; Brca1 mRNA ([3]; mESC + 20 µM 24 h): 0.52 Fold of mESC; Chk1 mRNA ([3]; mESC + 20 µM 24 h): 0.27 Fold of mESC; Rad51 mRNA ([3]; mESC + 20 µM 24 h): 0.29 Fold of mESC; Pgc1a mRNA ([3]; mESC + 20 µM 24 h, Fig 6D): 184.58 Fold of untreated control; ZO1 containing tight junctions in EC d6 differentiated from treated EC d4 [4]: did not affect

Question: Which “nuclear γH2AX foci” value [1] does the source give for O=c1c2ccccc2nc(/C=C/c2cccnc2)n1Cc1ccccc1 [B02] here?
Answer: significant increase

Question: And the “DSB numbers (γH2AX / 53BP1 foci)” value [2]?
Answer: clear increase

Question: What about the “Cdkn1a mRNA” value [3, 5] of the same compound?
Answer: 0.89 Fold of untreated control

Question: What about the “Cdkn2a mRNA” value [3, 5] of the same compound?
Answer: 0.97 Fold of untreated control

Question: And the “Glb1 mRNA” value [3, 5]?
Answer: 1.06 Fold of untreated control

Question: And the “Il6 mRNA” value [3, 5]?
Answer: 0.98 Fold of untreated control

Question: And the “Il8 mRNA” value [3, 5]?
Answer: 0.76 Fold of untreated control

Question: What about the “Tp53 mRNA” value [3, 5] of the same compound?
Answer: 1.09 Fold of untreated control

Question: What about the “Cdkn1a mRNA” value [3, 6] of the same compound?
Answer: 0.94 Fold of untreated control

Question: And the “Cdkn2a mRNA” value [3, 6]?
Answer: 0.89 Fold of untreated control

Question: What about the “Glb1 mRNA” value [3, 6] of the same compound?
Answer: 1.06 Fold of untreated control

Question: And the “Il6 mRNA” value [3, 6]?
Answer: 1.35 Fold of untreated control

Question: What about the “Il8 mRNA” value [3, 6] of the same compound?
Answer: 0.93 Fold of untreated control

Question: And the “Tp53 mRNA” value [3, 6]?
Answer: 0.98 Fold of untreated control

Question: And the “Brca1 mRNA” value ([3]; mESC + 20 µM 24 h)?
Answer: 0.95 Fold of mESC

Question: What about the “Chk1 mRNA” value ([3]; mESC + 20 µM 24 h) of the same compound?
Answer: 1.33 Fold of mESC

Question: What about the “Rad51 mRNA” value ([3]; mESC + 20 µM 24 h) of the same compound?
Answer: 0.90 Fold of mESC

Question: What about the “Pgc1a mRNA” value ([3]; mESC + 20 µM 24 h, Fig 6D) of the same compound?
Answer: 2.40 Fold of untreated control

Question: What about the “ZO1 containing tight junctions in EC d6 differentiated from treated EC d4” value [4] of the same compound?
Answer: did not affect

Question: Which “nuclear γH2AX foci” value [1] does the source give for COc1cccc2c1C(=O)c1c(O)c3c(c(O)c1C2=O)C[C@@](O)(C(=O)CO)C[C@@H]3O[C@H]1C[C@H](N)[C@H](O)[C@H](C)O1 [Dox, doxorubicin] here?
Answer: significant increase

Question: What about the “DSB numbers (γH2AX / 53BP1 foci)” value [2] of the same compound?
Answer: clear increase

Question: And the “Cdkn1a mRNA” value [3, 7]?
Answer: 2.20 Fold of untreated control

Question: And the “Cdkn2a mRNA” value [3, 7]?
Answer: 2.02 Fold of untreated control

Question: And the “Glb1 mRNA” value [3, 7]?
Answer: 1.22 Fold of untreated control

Question: What about the “Il6 mRNA” value [3, 7] of the same compound?
Answer: 2.74 Fold of untreated control

Question: What about the “Il8 mRNA” value [3, 7] of the same compound?
Answer: 1.29 Fold of untreated control

Question: And the “Tp53 mRNA” value [3, 7]?
Answer: 0.86 Fold of untreated control

Question: And the “Atp7a mRNA” value ([3]; mESC + 0.05 µM 24 h)?
Answer: 2.50 Fold of control

Question: What about the “Atp7b mRNA” value ([3]; mESC + 0.05 µM 24 h) of the same compound?
Answer: 1.82 Fold of control

Question: And the “Ctr2 mRNA” value ([3]; mESC + 0.05 µM 24 h)?
Answer: 2.95 Fold of control

Question: And the “Mdr1 mRNA” value ([3]; mESC + 0.05 µM 24 h)?
Answer: 4.03 Fold of control

Question: And the “Mrp1 mRNA” value ([3]; mESC + 0.05 µM 24 h)?
Answer: 2.38 Fold of control

Question: What about the “Oct2 mRNA” value ([3]; mESC + 0.05 µM 24 h) of the same compound?
Answer: 5.33 Fold of control

Question: And the “Gpx1 mRNA” value ([3]; mESC + 0.05 µM 24 h, Fig 6C)?
Answer: 1.54 Fold of untreated control

Question: What about the “Gpx4 mRNA” value ([3]; mESC + 0.05 µM 24 h, Fig 6C) of the same compound?
Answer: 0.62 Fold of untreated control

Question: And the “Gstm1 mRNA” value ([3]; mESC + 0.05 µM 24 h, Fig 6C)?
Answer: 2.08 Fold of untreated control

Question: And the “Hmox1 mRNA” value ([3]; mESC + 0.05 µM 24 h, Fig 6C)?
Answer: 1.14 Fold of untreated control

Question: What about the “Pgc1a mRNA” value ([3]; mESC + 0.05 µM 24 h, Fig 6C) of the same compound?
Answer: 1.78 Fold of untreated control

Question: What about the “Sod1 mRNA” value ([3]; mESC + 0.05 µM 24 h, Fig 6C) of the same compound?
Answer: 1.30 Fold of untreated control

Question: And the “Sod2 mRNA” value ([3]; mESC + 0.05 µM 24 h, Fig 6C)?
Answer: 1.10 Fold of untreated control

Question: What about the “Gpx4 mRNA” value ([3]; mESC + 0.05 µM 24 h, Fig 6F) of the same compound?
Answer: 1.03 Fold of untreated control

Question: And the “Slc7a11 mRNA” value ([3]; mESC + 0.05 µM 24 h, Fig 6F)?
Answer: 0.99 Fold of untreated control

Question: And the “Cdkn1a mRNA” value [3, 8]?
Answer: 2.09 Fold of untreated control

Question: What about the “Cdkn2a mRNA” value [3, 8] of the same compound?
Answer: 2.49 Fold of untreated control

Question: What about the “Glb1 mRNA” value [3, 8] of the same compound?
Answer: 1.35 Fold of untreated control

Question: And the “Il6 mRNA” value [3, 8]?
Answer: 2.84 Fold of untreated control

Question: And the “Il8 mRNA” value [3, 8]?
Answer: 1.07 Fold of untreated control

Question: And the “Tp53 mRNA” value [3, 8]?
Answer: 0.87 Fold of untreated control

Question: What about the “Atp7a mRNA” value ([3]; mESC + 0.1 µM 24 h) of the same compound?
Answer: 3.09 Fold of control

Question: And the “Atp7b mRNA” value ([3]; mESC + 0.1 µM 24 h)?
Answer: 2.42 Fold of control

Question: What about the “Ctr2 mRNA” value ([3]; mESC + 0.1 µM 24 h) of the same compound?
Answer: 4.05 Fold of control

Question: And the “Mdr1 mRNA” value ([3]; mESC + 0.1 µM 24 h)?
Answer: 6.26 Fold of control

Question: And the “Mrp1 mRNA” value ([3]; mESC + 0.1 µM 24 h)?
Answer: 2.51 Fold of control

Question: What about the “Oct2 mRNA” value ([3]; mESC + 0.1 µM 24 h) of the same compound?
Answer: 0.75 Fold of control

Question: What about the “Brca1 mRNA” value ([3]; mESC + 0.1 µM 24 h) of the same compound?
Answer: 1.93 Fold of mESC

Question: And the “Chk1 mRNA” value ([3]; mESC + 0.1 µM 24 h)?
Answer: 0.68 Fold of mESC

Question: And the “Rad51 mRNA” value ([3]; mESC + 0.1 µM 24 h)?
Answer: 1.36 Fold of mESC

Question: What about the “Pgc1a mRNA” value ([3]; mESC + 0.1 µM 24 h, Fig 6D) of the same compound?
Answer: 10.69 Fold of untreated control

Question: And the “Gpx4 mRNA” value ([3]; mESC + 0.1 µM 24 h, Fig 6F)?
Answer: 1.05 Fold of untreated control

Question: And the “Slc7a11 mRNA” value ([3]; mESC + 0.1 µM 24 h, Fig 6F)?
Answer: 1.20 Fold of untreated control

Question: What about the “ZO1 containing tight junctions in EC d6 differentiated from treated EC d4” value [4] of the same compound?
Answer: fragmented / interrupted ZO1 containing tight junctions
